Assays:
Assay type in all cases: cell-based
NF-κB p50 = test: Kinetics of p50 nuclear translocation in LPS-stimulated THP1 cells (immunoblot, densitometry); conditions: 100 nM
Experimental: (§1) Compound 50 impairs nuclear accumulation of c-Rel and slightly reduces nuclear accumulation of p50. We examined the nuclear translocation kinetics of NF-κB family members in LPS stimulated cells treated with Compound 50. THP1 cells were stimulated with LPS in either the presence or absence of 100 nM Compound 50, and the distribution of the NF-κB Rel family members was determined by immunoblotting nuclear (n.p.) extracts collected at 5 min, 15 min, 30 min, 1 h, 3 h and 6 h post-treatment. In response to LPS stimulation, p50 translocated into the nucleus as early as 5 minutes post-stimulation and accumulates as time goes on (FIG. 4, immunoblots and FIG. 5 densitometry). […] The experiment examining p65 nuclear translocation is shown in FIG. 6 (immunoblots) and FIG. 7 (densitometry). In LPS stimulated cells, p65 translocated into the nucleus as early as 5 minutes post-stimulation and accumulated to maximum levels at 15-30 minutes post-stimulation. Treatment of LPS-stimulated cells with Compound 50 had no effect on the kinetics of p65 nuclear entry.

p65 [1] = test: Nuclear p65 in PMA+ionomycin stimulated Jurkat T cells (immunoblot); conditions: 100 nM
NF-κB p65 = test: Kinetics of p65 nuclear translocation in LPS-stimulated THP1 cells (immunoblot, densitometry); conditions: 100 nM
Experimental: as §1

p50 = test: Western blot of THP-1 nuclear extracts: p50; conditions: IFN-γ plus LPS or IFN-γ plus SAC, remained above non-stimulated levels
Experimental: The THP-1 cell, Jurkat cell and RAW264.7 cell line were obtained from American Type Culture Collection (Manassas, Va.). The THP-1 Jurkat cells were cultured in RPMI 1640 (ATCC, Manassas, Va.), supplemented with 10% FCS (ATCC, Manassas, Va.), and 1% penicillin/Streptomycin (Gibco-BRL, New York, N.Y.). The RAW264.7 cells were cultured in DMEM (ATCC, Manassas, Va.) supplemented with 10% FCS (ATCC, Manassas, Va.), and 1% penicillin/Streptomycin (Gibco-BRL, New York, N.Y.). The cells were stimulated with human or murine recombinant IFNγ (100 ng/ml) for 10 h followed by LPS (1 μg/ml) or SAC (0.025%) CpG ([…]) in the presence or absence of Compound 50 at different concentrations for an additional incubation.
THP-1 cells were suspended in 20 volumes of buffer A containing 10 mM KCl, 10 mM HEPES (pH 7.9), 1 mM MgCl2, 1 mM dithiothreitol (DTT), 0.1% Nonidet p40 (NP-40), and 0.5 mM phenylmethylsulfonyl fluoride (PMSF) and homogenized and centrifuged at 10,000 rpm at 4C afor 5 min. […]
Of the transcription factors that have been analyzed, two factors, ICSBP and c-Rel, seem to be affected by Compound 4/Compound 50 treatment. […]

p65 [2] = test: LPS/IFNγ-induced phosphorylation of p65 in THP1 cells (immunoblot); conditions: THP1, 100 nM, residues Ser-276, Ser-468 and Ser-927
Experimental: In this study, we examined the effect of Compound 50 on LPS-induced phosphorylation of the NF-κB members p65 and p105/p50. THP1 monocytic cells were stimulated with IFNγ plus LPS in the presence or absence of 100 nM Compound 50 (30 min, 1 h and 3 h) and whole-cell extracts were immunoblotted using anti-phospho p65 and p105/p50 antibodies to detect the phosphorylated forms of these proteins. […] LPS/IFNγ induced phosphorylation of p65 as early as 30 minutes on residues Ser-276, Ser-468 and […]. Compound 50 had no effect on LPS/IFNγ induced phosphorylation at these sites. […] LPS/IFNγ induced phosphorylation of p105 as early as 30 minutes on residues Ser-927 and Ser-933. Compound 50 had no effect on LPS/IFNγ induced phosphorylation at these sites.

## Cc1cccc(/C=N/Nc2cc(N3CCOCC3)nc(OCCc3ccccn3)n2)c1 [Compound 50, N-(3-Methyl-benzylidene)-N′-[6-morpholin-4-yl-2-(2-pyridin-2-yl-ethoxy)-pyrimidin-4-yl]-hydrazine]
NF-κB p50; 5 minutes to 1 hr post-stimulation
  kinetics of p50 nuclear entry: no effect
NF-κB p50; 3 hours
  nuclear p50 protein levels: small decrease
p65 [1]
  nuclear p65 levels: unchanged
NF-κB p65
  kinetics of p65 nuclear entry: no effect
NF-κB p65; 6 hours
  level of nuclear p65 relative to untreated cells: small increase
p50
  nuclear p50 levels: decreased slightly
p65 [2]
  LPS/IFNγ induced phosphorylation of p65: no effect
